Reference: PubChem BioAssay AID179 (DTP/NCI, 2004)
Activity calls are given as the source filed them.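 Rule for the calls: active = compounds giving half or more protection of infected cells from virus-caused growth loss, again on retest; inactive = the rest.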

System: CEM cells HIV-1 protection, formazan growth assay
Experiment: NCI AIDS Antiviral Assay
Conditions: for IC50: measured here: growth of uninfected CEM cells
Outline: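 Screen of anti-HIV-1 activity in human CEM cells using a formazan-based growth measurement at five drug concentrations. Hits with 50% or greater protection were repeated, and confirmation required reproducible complete protection.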

| SMILES | EC50 | IC50 | outcome |
| --- | --- | --- | --- |
| CCOC(=O)/C(=C/c1cn(C(C)=O)c2ccccc12)P(C)(=O)OCC (configuration not stated) | > 200 µM | 37.2 µM |  |
| N#CC(C(=O)CCCC(=O)Nc1ccccc1[N+](=O)[O-])c1c(Cl)cccc1Cl (configuration not stated) | > 309 µM | > 309 µM |  |
| O=C(O)c1c2c(nc3ccccc13)-c1ccccc1C1(CCCC1)C2 | > 468 µM | 170 µM |  |
| CC(C)c1cccc2sc(NC(=O)C(=O)CC(=O)c3ccc(F)cc3)nc12 |  |  | inactive |
| CC(O)C1(CNc2cc(Cl)nc(N)n2)CCCC1 (configuration not stated) | > 200 µM | 74.1 µM |  |
| Nc1ccc(N=Nc2ccc(-c3ccc(N=Nc4c(S(=O)(=O)O)cc5cc(S(=O)(=O)O)c(N=Nc6ccc([N+](=O)[O-])cc6)c(N)c5c4O)cc3)cc2)c2cc(S(=O)(=O)O)ccc12 | > 19.5 µM | > 19.5 µM |  |
| O=C(NCCCCCCNC(=O)c1ccccn1)c1ccccn1 | > 200 µM | 191 µM |  |
| CC(=O)/C(C)=C(/C)[O-].CC(=O)/C(C)=C(/C)[O-].NCCNCCCNC(=O)c1cccc2cc3ccccc3nc12.[Co+3].[O-][Cl+3]([O-])([O-])[O-] | > 100 µM | 3.47 µM |  |
| O=C1OC(c2ccccc2)(c2ccccc2)c2sccc21 | > 24.5 µM | > 24.5 µM |  |
| CN1CCCC(C(=O)O)(c2ccccc2)CC1 (configuration not stated) |  |  | inactive |
| Cc1cccc(C)c1NC(=O)CCCC(=O)C1CC(=O)CCC1=O (configuration not stated) | > 550 µM | > 550 µM |  |
| CCOC(=O)N1N=C(/C(C)=N/OC)C(C)S1=O (configuration not stated) | > 200 µM | 148 µM |  |
| Cc1cc(C)c(C(=O)O)c(SSc2cc(C)cc(C)c2C(=O)O)c1 | 46.8 µM | 123 µM |  |
| CC(C)CC(C(N)=O)C(=O)NC(Cc1ccccc1)NC(=O)CNC(=O)C(C)NC(=O)C(N)Cc1ccc(O)cc1 (configuration not stated) | > 200 µM | > 200 µM |  |
| CSc1n[nH]c(N)c1C(=O)Nc1ccc(Cl)cc1 | 0.457 µM | 1.86 µM |  |
| COCP1(=S)OC(C)CCN1C(C)C (configuration not stated) | > 200 µM | 112 µM |  |
| O=S(=O)(O)c1cc(N=[N+]([O-])c2cc(S(=O)(=O)O)c3ccccc3c2)cc2ccccc12 | > 200 µM | 93.3 µM |  |

| SMILES | EC50 | IC50 | outcome |
| --- | --- | --- | --- |
| CCOC(=O)Nc1nc2cc(C(=O)OCC)n(C)c2s1 | > 200 µM | > 200 µM |  |
| CP1(=S)CC(Cl)=C2CCCCC21 (configuration not stated) |  |  | inactive |
| CCN(CC)C(=O)c1cc(OC(C)C)ccc1-c1c(C)cc(OC(C)C)c(OC)c1OC | > 214 µM | > 214 µM |  |
| O=C(O)CCSSCCC(=O)O | > 200 µM | > 200 µM |  |
| CCCCC1C=Cn2c(=O)oc3c(OC(C)C)c(C)c(O)c1c32 (configuration not stated) | > 200 µM | 2.51 µM |  |
| C[N+](C)(C)CCNP(=O)(Oc1ccccc1)c1ccccc1 (configuration not stated) | > 562 µM | > 562 µM |  |
| COc1cc2c(cc1OC)[C@H](C(=O)O)[C@@H](c1ccc(OC(C)C)c(OC)c1)N(C)C2=O | > 200 µM | > 200 µM |  |
| CCOC(=O)c1ccc(CS(=O)c2ccc(OC)cc2)c([N+](=O)[O-])c1 (configuration not stated) | > 100 µM | 12.3 µM |  |
| O=[N+]([O-])c1ccc(NN=C(c2ccccc2)c2ccccc2)c([N+](=O)[O-])c1 | > 52.5 µM | > 52.5 µM |  |
| Cc1nn(-c2ccc(S(=O)(=O)[O-])cc2)c([O-])c1N=[N+](C)c1ccc(-c2ccc(N=Nc3ccc4c(S(=O)(=O)[O-])cc(S(=O)(=O)[O-])c(N)c4c3[O-])c([O-])c2)cc1[O-].[Cu+2].[Cu+2].[Na+] | 6.76 µM | 120 µM |  |
| FC1=C2C3CCC(C3)C2C1(F)F (configuration not stated) | > 200 µM | > 200 µM |  |
| O=C(Nc1cccc([N+](=O)[O-])c1)OCc1ccc2c(c1)OCO2 |  |  | inactive |
| CC(=O)N1N(c2ccc([N+](=O)[O-])cc2)C(=O)C1(C)C | > 200 µM | > 200 µM |  |
| CCc1n[nH]c(=O)n1-c1ccc2ccccc2c1 | > 100 µM | > 100 µM |  |
| O=c1[nH]cnc2c1nnn2CCCCCCCCCCCCn1nnc2c(=O)[nH]cnc21 | > 200 µM | 24 µM |  |
| Oc1ccc(Cl)cc1-c1[nH]c(=S)nc(-c2ccccc2)c1Cl | > 200 µM | > 200 µM |  |
